Here are results for 28 molecules from US10035790B2, “RORγ modulators” (BRISTOL-MYERS SQUIBB COMPANY, priority 2012, dated 2018).

The first experiment concerns the target T1, ligand binding domain of human RORγ (A262-S507) (Homo sapiens, UniProt P51449).
T1 construct: made in house; host or cells: E. coli
T1 sequence (P51449 262-507): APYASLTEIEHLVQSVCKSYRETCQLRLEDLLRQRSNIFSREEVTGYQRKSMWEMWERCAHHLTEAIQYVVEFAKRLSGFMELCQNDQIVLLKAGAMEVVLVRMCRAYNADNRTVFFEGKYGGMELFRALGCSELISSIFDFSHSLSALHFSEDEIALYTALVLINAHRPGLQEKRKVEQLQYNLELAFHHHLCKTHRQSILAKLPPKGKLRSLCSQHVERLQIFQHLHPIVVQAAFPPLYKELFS
Nature of the experiment: General RORγ SPA binding assay (competition with [3H]25-hydroxycholesterol). Particulars: IC50, RORγ SPA binding assay, inhibition of [3H]25-hydroxycholesterol binding. Put shortly:
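Step one: compound meets 50 nM nickel-purified, His-tagged protein from E. coli for 15 min at room temperature (PBS, 0.5% fatty acid free BSA). Step two: radioligand is added for another 15 min. Step three: SPA beads are added for 30 min before scintillation reading and IC50 fitting.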
The term IC50 denotes the midpoint of a concentration-inhibition curve. For the molecule `Nc1ncc(C(=O)COc2cccc(C(F)(F)F)n2)c(C2CCN(C(=O)Oc3ccccc3F)CC2)n1` [Compound M14, 2-Fluorophenyl 4-[2-amino-5-({[6-(trifluoromethyl)pyridin-2-yl]oxy}acetyl)pyrimidin-4-yl]piperidine-1-carboxylate], the IC50 stood at 485 nM.

Still in this experiment, the particulars now being: RORγ SPA binding assay, inhibition of [3H]25-hydroxycholesterol binding; read-out: IC50.
As to `Cc1cc(C)cc(CNC(=O)c2cnc(C)nc2C2(F)CCN(C(=O)Cc3c(F)cccc3F)CC2)c1` [Compound A105, 4-(1-(2-(2,6-difluorophenyl)acetyl)-4-fluoropiperidin-4-yl)-N-(3,5-dimethylbenzyl)-2-methylpyrimidine-5-carboxamide], the IC50 was 551 nM.
Still for that read-out and setting: with `CC(C)Oc1ncc(C(C)(O)COc2ccnc(C(F)(F)F)n2)c(C2CCN(C(=O)Nc3c(F)cccc3F)CC2)n1` (stereo not shown) [Compound D40, N-(2,6-Difluorophenyl)-4-{5-(1-hydroxy-1-methyl-2-{[2-(trifluoromethyl)pyrimidin-4-yl]oxy}ethyl)-2-[(1-methylethyl)oxy]pyrimidin-4-yl}piperidine-1-carboxamide] the figure was 29.6 nM; with `Cc1ncc(C(C)(O)COc2cccc(Cl)c2)c(C2CCN(C(=O)Cc3c(F)cccc3F)CC2)n1` (stereo not shown) [Compound D12, 1-(4-(5-(1-(3-chlorophenoxy)-2-hydroxypropan-2-yl)-2-methylpyrimidin-4-yl)piperidin-1-yl)-2-(2,6-difluorophenyl)ethanone], 6.2 nM.
On the same count and under the same terms, the value for `CCNc1ncc(C(=O)NCc2cccc(Cl)c2)c(C2CCN(C(=O)Cc3c(F)cccc3F)CC2)n1` [Compound A91, N-(3-chlorobenzyl)-4-(1-(2-(2,6-difluorophenyl)acetyl)piperidin-4-yl)-2-(ethylamino)pyrimidine-5-carboxamide] was 6.7 nM.
Still for that read-out and setting: the value for `Cc1ncc(C(C)(O)CNc2ccnc(C(F)(F)F)n2)c(C2CCN(C(=O)Nc3c(F)cccc3C(F)(F)F)CC2)n1` (stereo not shown) [Compound D18, N-[2-Fluoro-6-(trifluoromethyl)phenyl]-4-[5-(1-hydroxy-1-methyl-2-{[2-(trifluoromethyl)pyrimidin-4-yl]amino}ethyl)-2-methylpyrimidin-4-yl]piperidine-1-carboxamide] was 112 nM.
Consider `Cc1ncc(C(=O)NCc2cccc(Cl)c2F)c(C2CCN(C(=O)Cc3c(F)cccc3F)CC2)n1` [Compound A54, N-(3-chloro-2-fluorobenzyl)-4-(1-(2-(2,6-ditluorophenyl)acetyl)piperidin-4-yl)-2-methylpyrimidine-5-carboxamide], for which the IC50 came to 13.9 nM.
Regarding `Cc1nc(C)c(C(=O)NCc2cccc(Cl)c2)c(C2CCN(C(=O)Cc3c(F)cccc3F)CC2)n1` [Compound A81], the IC50 amounted to 5.2 nM.
Still for that read-out and setting: the value for `C/C(=N\Oc1cccc(C(F)(F)F)n1)c1cnc(C)nc1C1CCN(C(=O)Nc2c(F)cccc2F)CC1` [Compound B38, N-(2,6-Difluorophenyl)-4-{2-methyl-5-[(1E)-N-{[6-(trifluoromethyl)pyridin-2-yl]oxy}ethanimidoyl]pyrimidin-4-yl}piperidine-1-carboxamide] was 169 nM; that for `C/C(=N\Oc1cccc(C(F)(F)F)c1)c1cnc(C)nc1C1CCN(C(=O)Nc2c(F)cccc2F)CC1` [Compound B43, N-(2,6-Difluorophenyl)-4-{2-methyl-5-[(1E)-N-{[3-(trifluoromethyl)phenyl]oxy}ethanimidoyl]pyrimidin-4-yl}piperidine-1-carboxamide] was 13.5 nM.
Still for that read-out and setting: the value for `Cc1nc(C)c(-c2nc(-c3cccc(Cl)c3)no2)c(C2CCN(C(=O)Cc3c(F)cccc3F)CC2)n1` [Compound C4, 1-(4-(5-(3-(3-chlorophenyl)-1,2,4-oxadiazol-5-yl)-2,6-dimethylpyrimidin-4-yl)piperidin-1-yl)-2-(2,6-difluorophenyl)ethanone] was 620 nM; that for `C/C(=N\Oc1cccc(C)c1C)c1cnc(C)nc1C1CCN(C(=O)Cc2c(F)cccc2F)CC1` [Compound B22, (E)-2-(2,6-difluorophenyl)-1-(4-(5-(1-((2,3-dimethylphenoxy)imino)ethyl)-2-methylpyrimidin-4-yl)piperidin-1-yl)ethanone] was 84 nM.
Same read-out and setting: with `Cc1cc(C)cc(CNC(=O)c2c(C)nc(C)nc2C2CCN(C(=O)Cc3c(F)cccc3F)CC2)c1` [Compound A80, 4-(1-(2-(2,6-difluorophenyl)acetyl)piperidin-4-yl)-N-(3,5-dimethylbenzyl)-2,6-dimethylpyrimidine-5-carboxamide] the figure was 9.8 nM.
For the molecule `CSc1ncc(C(=O)NCc2ccc(Cl)c(Cl)c2)c(C2CCN(C(=O)Cc3c(F)cccc3F)CC2)n1` [Compound A85, N-(3,4-dichlorobenzyl)-4-(1-(2-(2,6-difluorophenyl)acetyl)piperidin-4-yl)-2-(methylthio)pyrimidine-5-carboxamide], the IC50 came out at 43.8 nM.
On the same count and under the same terms, with `Nc1ncc(C(O)COc2ccnc(C(F)(F)F)n2)c(C2CCN(C(=O)Nc3c(F)cccc3F)CC2)n1` (stereo not shown) [Compound N2, 4-[2-Amino-5-(1-hydroxy-2-{[2-(trifluoromethyl)pyrimidin-4-yl]oxy}ethyl)pyrimidin-4-yl]-N-(2,6-difluorophenyl)piperidine-1-carboxamide] the figure was 19.5 nM; with `Cc1cc(C)cc(CNC(=O)c2cnc(C)nc2C2CCN(C(=O)Cc3cccc(C)c3)CC2)c1` [Compound A30, N-(3,5-dimethylbenzyl)-2-methyl-4-(1-(2-(m-tolyl)acetyl)piperidin-4-yl) pyrimidine-5-carboxamide], 1450 nM; with `CCc1ncc(C(=O)NNc2cccc(Cl)c2)c(C2CCN(C(=O)Cc3c(F)cccc3F)CC2)n1` [Compound G3, N′-(3-chlorophenyl)-4-(1-(2-(2,6-difluorophenyl)acetyl)piperidin-4-yl)-2-ethylpyrimidine-5-carbohydrazide], 8.1 nM.
Same read-out and setting: with `Cc1nc(N)nc(C2CCN(C(=O)Oc3ccccc3F)CC2)c1-c1nnc(-c2ccnc(C(F)(F)F)n2)o1` [Compound C52, 2-Fluorophenyl 4-(2-amino-6-methyl-5-{5-[2-(trifluoromethyl)pyrimidin-4-yl]-1,3,4-oxadiazol-2-yl}pyrimidin-4-yl)piperidine-1-carboxylate] the figure was 8.7 nM.
On the same count and under the same terms, the value for `Cc1ncc(C(C)(O)CN(C)c2ccnc(C(F)(F)F)n2)c(C2CCN(C(=O)Cc3c(F)cccc3F)CC2)n1` (stereo not shown) [Compound D20, 2-(4-{1-[(2,6-Difluorophenyl)acetyl]piperidin-4-yl}-2-methylpyrimidin-5-yl)-1-{methyl[2-(trifluoromethyl)pyrimidin-4-yl]amino}propan-2-ol] was 72.8 nM; that for `Cc1ncc(C(C)(C)OCc2cccc(Cl)n2)c(C2CCN(C(=O)Cc3c(F)cccc3F)CC2)n1` [Compound E7, 1-(4-(5-(2-((6-chloropyridin-2-yl)methoxy)propan-2-yl)-2-methylpyrimidin-4-yl)piperidin-1-yl)-2-(2,6-difluorophenyl)ethanone] was 63 nM; that for `Cc1ncc(C(=O)NOc2cccc(C(F)(F)F)c2)c(C2CCN(C(=O)Cc3c(F)cccc3F)CC2)n1` [Compound H1, 4-{1-[(2,6-Difluorophenyl)acetyl]piperidin-4-yl}-2-methyl-N-{[3-(trifluoromethyl)-phenyl]oxy}pyrimidine-5-carboxamide] was 327 nM.
As to `C/C(=N\Oc1cc(F)nc(F)c1)c1cnc(N)nc1C1CCN(C(=O)Nc2c(F)cccc2F)CC1` [Compound B56, 4-(2-Amino-5-{(1E)-N-[(2,6-difluoropyridin-4-yl)oxy]ethanimidoyl}pyrimidin-4-yl)-N-(2,6-difluorophenyl)piperidine-1-carboxamide], the IC50 worked out at 31.8 nM.
Turning to `Cc1cc(C)cc(ONC(=O)c2cnc(C)nc2C2CCN(C(=O)Cc3c(F)cccc3F)CC2)c1` [Compound H2, 4-(1-(2-(2,6-difluorophenyl)acetyl)piperidin-4-yl)-N-(3,5-dimethylphenoxy)-2-methylpyrimidine-5-carboxamide], the IC50 is 49 nM.
On the same count and under the same terms, the value for `Cc1ncc(C(=O)NCc2cccc(Cl)c2)c(C2CCN(C(=O)Cc3c(F)cccc3F)CC2)n1` [Compound A40, N-(3-chlorobenzyl)-4-(1-(2-(2,6-difluorophenyl)acetyl)piperidin-4-yl)-2-methylpyrimidine-5-carboxamide] was 5.8 nM; that for `O=C(NCc1ccc(Cl)c(Cl)c1)c1cncnc1C1CCN(C(=O)Cc2c(F)cccc2Cl)CC1` [Compound A6, 4-(1-(2-(2-chloro-6-fluorophenyl)acetyl)piperidin-4-yl)-N-(3,4-dichlorobenzyl)pyrimidine-5-carboxamide] was 26.4 nM; that for `Cc1nc(C)c(C(=O)NCc2ccnc(C(F)(F)F)n2)c(C2CCN(C(=O)Nc3c(F)cccc3F)CC2)n1` [Compound A122, 4-(1-{[(2,6-difluorophenyl)amino]carbonyl}piperidin-4-yl)-2,6-dimethyl-N-{[2-(trifluoromethyl)pyrimidin-4-yl]methyl}pyrimidine-5-carboxamide] was 116 nM.
Consider `Cc1ncc(C(F)(F)CNc2ccnc(C(F)(F)F)n2)c(C2CCN(C(=O)Nc3c(F)cccc3F)CC2)n1` [Compound N18, N-(2,6-Difluorophenyl)-4-[5-(1,1-difluoro-2-{[2-(trifluoromethyl)pyrimidin-4-yl]amino}ethyl)-2-methylpyrimidin-4-yl]piperidine-1-carboxamide], for which the IC50 amounted to 16.2 nM.
The same measure, in the same setting: with `Cc1cc(C)cc(NCC(C)(O)c2cnc(C)nc2C2CCN(C(=O)Cc3c(F)cccc3F)CC2)c1` (stereo not shown) [Compound D3, 2-(2,6-difluorophenyl)-1-(4-(5-(1-((3,5-dimethylphenyl)amino)-2-hydroxypropan-2-yl)-2-methylpyrimidin-4-yl)piperidin-1-yl)ethanone] the figure was 5 nM.
